Reference: ChEMBL document CHEMBL3045528, “Development of a Novel Fungicide, Cyazofamid” (J Pestic Sci, 2004)
Converted amounts (≈) assume the structure as drawn.

How the values were obtained:
[1] = Acute toxicity in Rattus norvegicus (rat) administered through inhalation; type: organism-based; conditions: in vivo, inhaled or intranasal
[2] = Toxicity in Cyprinidae (carp fish); type: ADME, organism-based; conditions: in vivo
Phytophthora infestans [3] = assay: Antimicrobial activity against Phytophthora infestans infested in potato plant; type: functional
[4] = system: Selenastrum capricornutum; assay: Toxicity in Selenastrum capricornutum; type: organism-based
[5] = Acute toxicity in […] dosed Rattus norvegicus (rat); type: organism-based; conditions: in vivo
[6] = Solubility of the compound in water at pH 5 at 20 degC; type: physicochemical
[7] = Acute toxicity in Pheretima sieboldi; type: organism-based; conditions: metaphire sieboldi, in vivo
Apis mellifera [8] = assay: Acute toxicity in Apis mellifera (honey bee) compound administered topically; type: organism-based; conditions: in vivo, topical_or_ocular
[9] = system: Pseudoperonospora cubensis; assay: Antimicrobial activity against Pseudoperonospora cubensis infested in melons; type: functional
Phytophthora infestans [10] = assay: Antimicrobial activity against Phytophthora infestans infested in tomato plant; type: functional
[11] = Toxicity in Oncorhynchus mykiss (rainbow trout); type: organism-based; conditions: in vivo
[12] = Acute toxicity in po dosed Rattus norvegicus (rat); type: organism-based; conditions: in vivo
[13] = system: Pseudoperonospora cubensis; assay: Antimicrobial activity against Pseudoperonospora cubensis infested in cucumber plant; type: functional
Daphnia magna = assay: Toxicity in Daphnia magna; type: organism-based
Apis mellifera [14] = assay: Acute toxicity in po dosed Apis mellifera (honey bee); type: organism-based; conditions: in vivo
Plasmopara viticola = assay: Antimicrobial activity against Plasmopara viticola infested in grapevines; type: functional
[15] = Acute toxicity in po dosed Mus musculus (mouse); type: organism-based; conditions: in vivo

## Cc1ccc(-c2c(Cl)nc(C#N)n2S(=O)(=O)N(C)C)cc1 [Cyazofamid]
[1]
  LC50: > 5.5 µg/mL
[2]
  LC50: > 69.6 µg/mL
Phytophthora infestans [3]
  Activity: 50 µg/mL
[4]
  EC50: 0.858 µg/mL (≈ 2.64 µM)
[5]
  LD50: > 2000 mg/kg
[6]
  solubility: 0.121 µg/mL (≈ 0.373 µM)
[7]
  NOAEL: > 1000 mg/kg
Apis mellifera [8]
  LD50: > 100 µg
[9]
  Activity: 50 µg/mL
Phytophthora infestans [10]
  Activity: 50 µg/mL
[11]
  LC50: > 100 µg/mL
[12]
  LD50: > 5000 mg/kg
[13]
  Activity: 50 µg/mL
Daphnia magna
  EC50: > 0.198 µg/mL
Apis mellifera [14]
  LD50: > 151.7 µg
Plasmopara viticola
  Activity: 50 µg/mL
[15]
  LD50: > 5000 mg/kg
